How the values were obtained:
[1] = test system: contractility of the heart; assay: Positive inotropic effect (increase in max dP/dt) in reserpine-pretreated, anaesthetized cats, i.v. dosing; assay type: in vivo; conditions: continuous infusion
Description: The positive inotropic effect and the cardioselectivity of the compounds were studied in cats with an average weight of 3 kg. The animals were pretreated with reserpine (5 mg/kg i.p.) about 16 hours before experiment. This treatment eliminated the reflex sympathetic control of the heart and the vascular tonus. Following pentobarbital anaesthesia (Mebumal^e, 30 mg/kg i.p.) artificial air respiration was started. The two vagus nerves were cut and the adrenal glands were excluded from the circulation by means of ligatures on the adrenal veins.
Blood pH, pC02 and p02 were kept within the normal ranges throughout the experiments. All recordings were made on a Grass Polygraph. Heart rate, pressure in the left ventricle (LVP), the first derivative of LVP (dP/dt), intra-arterial blood pressure and peripheral resistance were recorded. LVP was recorded via a catheter tip pressure transducer (Millar), which was inserted via the left carotid artery. This.pressure curve was differentiated and max dP/dt was recorded by means of a peak detector. The recording of max dP/dt was linear up to 20 […]. The increase in max dP/dt was used as a measure of the increased contractility of the heart.
The substances were administered intravenously in increasing doses. […]

[2] = test system: inotropic effect (max dF/dt) in the aorta; assay: Duration of positive inotropic action (decline of max dF/dt in the aorta) in conscious dogs, i.v. dosing; assay type: in vivo; conditions: conscious beagle dogs, intravenous
Description: The duration of action of the compounds has been studied in conscious beagle dogs. An electromagnetic flow probe was inplanted on the ascending aorta for determination of the r inotropic effect measured as maximal flow acceleration (max dF/dt) in the aorta. For determination of blood pressure catheters were inplanted in thoracic aorta and .left atrium. Increasing doses of the substances were administered intravenously and the decline of inotropic effect (max dF/dt) was used for determination of duration.

In the case of `CC(C)NCC(O)c1ccc(O)c(O)c1` (centres unmarked) [isoprenaline], the Half maximal effect [1] was 0.004 µmol/kg/min and the “time for 50% decline of the positive inotropic effect (max dF/dt)” value [2] was “less than 1 min”.

From patent EP0064487A1, “New substituted 3-(parasubstituted)phenoxy-1-alkylamino-propanol-2-s, as well as process for their preparation, pharmaceutical preparations containing same, and method for treating cardiac failure” (priority 1981, dated 1982)
